Data set [1] has as its target T1, wild type AXL (wtAXL) receptor tyrosine kinase (Homo sapiens, UniProt P30530).
T1 construct: WtAXL cDNA was cloned into vector pLXSN(ESK) and transfected into Phoenix E packaging cells; expressed in transfected cells; host or cells: NIH3T3 N7 mouse fibroblasts, retrovirally infected (clone 22)
T1 sequence (P30530 26-894): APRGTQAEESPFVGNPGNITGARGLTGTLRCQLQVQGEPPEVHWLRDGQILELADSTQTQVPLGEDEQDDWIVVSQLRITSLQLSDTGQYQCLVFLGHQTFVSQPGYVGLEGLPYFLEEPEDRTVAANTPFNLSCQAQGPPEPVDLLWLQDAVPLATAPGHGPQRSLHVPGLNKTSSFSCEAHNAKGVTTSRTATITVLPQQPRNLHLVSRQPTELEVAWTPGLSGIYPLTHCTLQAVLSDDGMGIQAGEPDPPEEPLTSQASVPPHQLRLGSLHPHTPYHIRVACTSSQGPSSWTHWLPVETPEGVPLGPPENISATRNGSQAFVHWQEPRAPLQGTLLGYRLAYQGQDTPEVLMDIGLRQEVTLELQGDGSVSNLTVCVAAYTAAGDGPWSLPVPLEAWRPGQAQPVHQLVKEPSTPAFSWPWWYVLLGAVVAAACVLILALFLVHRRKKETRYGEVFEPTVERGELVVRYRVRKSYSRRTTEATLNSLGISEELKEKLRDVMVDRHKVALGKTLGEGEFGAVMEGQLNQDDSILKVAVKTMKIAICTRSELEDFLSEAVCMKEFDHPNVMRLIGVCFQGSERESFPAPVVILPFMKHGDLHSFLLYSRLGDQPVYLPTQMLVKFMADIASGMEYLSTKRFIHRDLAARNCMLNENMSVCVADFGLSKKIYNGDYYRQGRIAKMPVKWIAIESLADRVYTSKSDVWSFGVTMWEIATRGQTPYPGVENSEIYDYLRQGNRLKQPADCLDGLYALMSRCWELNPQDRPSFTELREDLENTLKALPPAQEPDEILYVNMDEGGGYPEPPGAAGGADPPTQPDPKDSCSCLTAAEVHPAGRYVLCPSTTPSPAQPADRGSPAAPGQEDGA
In words: NIH-3T3-AXL cellular tyrosine kinase assay (inhibition of AXL phosphorylation). The data set is classed as cell-based. The conditions noted are these: AXL phosphorylation in NIH-3T3-AXL (clone 22) cells, serum-depleted, 2 h with compound, immunoprecipitation / anti-phosphotyrosine blot. As to the method: 3) Inhibitory Activity of Compounds on Axl Phosphorylation in NIH-3T3-AXL Cellular Tyrosine Kinase Assay
The viral supernatant was collected and used to infect target cells NIH3T3 N7. Monoclonal NIH3T3-AXL cell lines stably expressing wtAXL were generated by selecting retrovirally infected cells in medium containing puromycin (2 μg/ml) and subsequent clonal separation.
NIH-3T3-AXL Cellular Kinase Assay
Serial dilutions of compounds were added, and the cells were further incubated or 2 h. […] The clarified cell lysate (10 min at 13000 rpm at 4° C.) were used for immunoprecipitation. Equal amounts of protein were mixed with 2 μg anti-AXL polyclonal antibody (homemade) and 20 μl Protein A sepharose beads, and rotated for 6 hr at 4° C. After immunoprecipitation, the beads were washed three times with 1×HNTG (50 mM HEPES (pH 7.5), 150 mM NaCl, 10% Glycerol, 0.2% Triton X-100). The final pellet was suspended in 20 μl 2× Laemmli buffer, and boiled for 5 min at 100° C. […] The membrane was then incubated with anti-phosphotyrosine antibody (4G10) overnight at 4° C. followed by washing with 1×TBST buffer three times. After incubating membrane with HRP-conjugated anti-mouse secondary antibody for 1 hour at room temperature followed by washing with 1×TBST buffer three times, the proteins were visualized by ECL.

Consider `COc1cc2nccc(Oc3ccc(NS(=O)(=O)c4cccc(-c5ncccn5)c4)cc3C)c2cc1OC` [Example A132, N-[4-(6,7-Dimethoxy-quinolin-4-yloxy)-3-methyl-phenyl]-3-pyrimidin-2-yl-benzenesulfonamide], for which the melting point – broadly, the temperature, or range, at which the solid turns liquid – lay within 188 to 190 °C. Besides, the 50% inhibitory concentration (IC50) (usually the concentration that gives 50% inhibition) in data set [1] was more than 10000 nM.
On to `COc1cc2nccc(Oc3ccc(NS(=O)(=O)c4ccc(-c5ccccc5)cc4)cc3OC)c2cc1OC` [Example A142, Biphenyl-4-sulfonic acid [4-(6,7-dimethoxy-quinolin-4-yloxy)-3-methoxy-phenyl]-amide], for which the melting point lay within 128 to 131 °C. The IC50 in data set [1] was more than 10000 nM.
In the case of `Cc1cc(Oc2ccc(NS(=O)(=O)c3cc(F)cc(F)c3)cc2)c2cc(F)ccc2n1` [Example B13, 3,5-Difluoro-N-[4-(6-fluoro-2-methyl-quinolin-4-yloxy)-phenyl]-benzenesulfonamid], the melting point lay within 194 to 195 °C. In data set [1], the IC50 is less than 1000 nM.
`COc1cc2nccc(Oc3ccc(NS(=O)(=O)c4cccc(Oc5ccccc5)c4)cc3)c2cc1OC` [Example A115, N-[4-(6,7-Dimethoxy-quinolin-4-yloxy)-phenyl]-3-phenoxy-benzenesulfonamide] returned a melting point of 172 to 174 °C. In data set [1], the IC50 was determined as 1260 nM.
`COc1cc2nccc(Oc3ccc(NS(=O)(=O)c4csc5ccccc45)cc3F)c2cc1OC` [Example A108, Benzo[b]thiophene-3-sulfonic acid [4-(6,7-dimethoxy-quinolin-4-yloxy)-3-fluoro-phenyl]-amide] registered a melting point of 191 to 193 °C. Also, the IC50 in data set [1] was more than 1000 nM.
In the case of `Cc1cc(Oc2ccc(NS(=O)(=O)c3csc4ccccc34)c(F)c2)c2cccc(C(F)(F)F)c2n1` [Example C18, Benzo[b]thiophene-3-sulfonic acid [2-fluoro-4-(2-methyl-8-trifluoromethyl-quinolin-4-yloxy)phenyl]-amide], the melting point lay in the range of 242 to 244 °C. Besides, the IC50 in data set [1] is more than 10000 nM.
In turn, `COc1cc2nccc(Oc3ccc(NS(=O)(=O)c4cc(Cl)cc(Cl)c4OC)cc3C)c2cc1OC` [Example A127, 3,5-Dichloro-N-[4-(6,7-dimethoxy-quinolin-4-yloxy)-3-methyl-phenyl]-2-methoxy-benzenesulfonamide] displayed a melting point of 206 to 208 °C. Besides, the IC50 in data set [1] was more than 3000 nM.
For `COc1cc2nccc(Oc3ccc(NS(=O)(=O)c4ccc(F)c(F)c4F)c(F)c3)c2cc1OC` [Example A20, N-[4-(6,7-Dimethoxy-quinolin-4-yloxy)-2-fluoro-phenyl]-2,3,4-trifluoro-benzenesulfonamide] the same measures were 188 to 190 °C and 5050 nM.
For `Cc1cc(Oc2ccc(NS(=O)(=O)c3cc(Cl)ccc3Cl)c(F)c2)c2cccc(C(F)(F)F)c2n1` [Example C05, 2,5-Dichloro-N-[2-fluoro-4-(2-methyl-8-trifluoromethyl-quinolin-4-yloxy)-phenyl]-benzenesulfonamid] the same measures were 207 to 209 °C and more than 10000 nM.
`Cc1cc(Oc2ccc(NS(=O)(=O)c3cccc(C(F)(F)F)c3)c(F)c2)c2cc(F)ccc2n1` [Example B8, N-[2-Fluoro-4-(6-fluoro-2-methyl-quinolin-4-yloxy)-phenyl]-3-trifluoromethyl-benzenesulfonamide] gave a melting point of 150 to 152 °C. For the same molecule, in data set [1], the IC50 was more than 10000 nM.
For `COc1cc2nccc(Oc3ccc(NS(=O)(=O)c4cc(Cl)cc(Cl)c4OC)cc3F)c2cc1OC` [Example A106, 3,5-Dichloro-N-[4-(6,7-dimethoxy-quinolin-4-yloxy)-3-fluoro-phenyl]-2-methoxy-benzenesulfonamide] the same measures were 155 to 158 °C and 750 nM.
For `COc1cc2c(Oc3ccc(NS(=O)(=O)c4ccccc4C#N)cc3F)ccnc2cc1OCCCN1CCC(C)CC1` [Example D23, 2-Cyano-N-(3-fluoro-4-{6-methoxy-7-[3-(4-methyl-piperidin-1-yl)-propoxy]-quinolin-4-yloxy}-phenyl)-benzenesulfonamide] the same measures were 139 to 142 °C and 211 nM.
For `COc1cc2c(Oc3ccc(NS(=O)(=O)c4ccccc4Br)cc3F)ccnc2cc1OCCN1CCOCC1` [Example D26, 2-Bromo-N-{3-fluoro-4-[6-methoxy-7-(2-morpholin-4-yl-ethoxy)-quinolin-4-yloxy]-phenyl}-benzenesulfonamide] the same measures were 175 to 177 °C and 150 nM.
In turn, `COc1cc2nccc(Oc3ccc(NS(=O)(=O)c4cccc(-c5ccccc5)c4)cc3F)c2cc1OC` [Example A97, Biphenyl-3-sulfonic acid [4-(6,7-dimethoxy-quinolin-4-yloxy)-3-fluoro-phenyl]-amide] gave a melting point of 109 to 111 °C. For the same molecule, the IC50 in data set [1] was determined as 540 nM.
With `COc1cc2c(Oc3ccc(NS(=O)(=O)c4cccc5ccccc45)cc3F)ccnc2cc1OCCCN1CCC(C)CC1` [Example D21, Naphthalene-1-sulfonic acid (3-fluoro-4-{6-methoxy-7-[3-(4-methyl-piperidin-1-yl)-propoxy]-quinolin-4-yloxy}-phenyl)-amide], the melting point lay within 140 to 143 °C. Also, the IC50 in data set [1] amounted to 347 nM.
For `COc1cc2nccc(Oc3ccc(NS(=O)(=O)c4ccc(Cl)s4)c(F)c3)c2cc1OC` [Example A28, 5-Chloro-thiophene-2-sulfonic acid [4-(6,7-dimethoxy-quinolin-4-yloxy)-2-fluoro-phenyl]-amide] the same measures were 187 to 189 °C and 3900 nM.
`COc1cc2nccc(Oc3ccc(NS(=O)(=O)c4ccc(-c5ccccc5)cc4)cc3F)c2cc1OC` [Example A107, Biphenyl-4-sulfonic acid [4-(6,7-dimethoxy-quinolin-4-yloxy)-3-fluoro-phenyl]-amide] registered a melting point of 167 to 171 °C. Also, the IC50 in data set [1] was more than 10000 nM.
On to `COc1cc2nccc(Oc3ccc(NS(=O)(=O)c4cccc(F)c4C)c(F)c3)c2cc1OC` [Example A58, N-[4-(6,7-Dimethoxy-quinolin-4-yloxy)-2-fluoro-phenyl]-3-fluoro-2-methyl-benzenesulfonamide], for which the melting point lay in the range of 204 to 206 °C. In addition, the IC50 in data set [1] was more than 1000 nM.
Take `COc1cc2nccc(Oc3ccc(NS(=O)(=O)c4ccc(F)c(F)c4)c(F)c3)c2cc1OC` [Example A3, N-[4-(6,7-Dimethoxy-quinolin-4-yloxy)-2-fluoro-phenyl]-3,4-difluoro-benzenesulfonamide]: the melting point was in the range of 217 to 219 °C. Further, the half-maximal inhibitory concentration (IC50) in data set [1] was determined as 3400 nM.
In turn, `COc1cc2nccc(Oc3ccc(NS(=O)(=O)c4ccc(Cl)cc4F)cc3)c2cc1OC` [Example A134, 4-Chloro-N-[4-(6,7-dimethoxy-quinolin-4-yloxy)-phenyl]-2-fluoro-benzenesulfonamide] came in with a melting point of 218 to 220 °C. Further, in data set [1], the IC50 was more than 1000 nM.
`COc1cc2nccc(Oc3ccc(NS(=O)(=O)c4cc(C(F)(F)F)ccc4Br)c(F)c3)c2cc1OC` [Example A46, 2-Bromo-N-[4-(6,7-dimethoxy-quinolin-4-yloxy)-2-fluoro-phenyl]-5-trifluoromethyl-benzenesulfonamide] had a melting point of 227 to 230 °C. In addition, the IC50 in data set [1] is more than 10000 nM.

Source of the values: patent publication US9206130B2, “Quinoline derivatives as AXL kinase inhibitors” (Max-Planck-Gesellschaft zur Förderung der Wissenschaften …, priority 2008, dated 2015).
